Test results taken from US20090156646A1, “PYRIDYLPHENOL COMPOUND AND USE THEREOF” (TAKEDA PHARMACEUTICAL COMPANY LIMITED, priority 2005, published 2009).
Structures can show the parent of a compound that is named as a salt.

Target: T1, human metastin receptor hOT7T175 (Homo sapiens, UniProt Q969F8, L364H)
T1 construct: encoding the entire length of human metastin receptor hOT7T175; expressed in transfected cells; host or cells: CHO/dhFr- cells (ATCC #CRL-9096) stably transfected with pAKKO-hOT7T175; clone h175-16 was used as whole cells for FLIPR
Experiment: binding inhibiting activity: 125I-metastin (40-54) binding to cell membrane fraction of h175 KB34 cells
Conditions: room temperature 60 minutes, read-out: binding inhibiting activity, represented by the IC50 value
Protocol: cDNA fragments (SEQ ID NO: 2) encoding the entire length of human metastin receptor hOT7T175 were incorporated into expression vector pAKKO1.11H to produce animal cell expression plasmids pAKKO-hOT7T175. CHO/dhFr-cells (ATCC, #CRL-9096) were seeded onto 6 cm culture dishes (Becton Dickinson) at a density of 0.3×10^6 cells/dish, and cultured in the conditions of 48 hours, 37° C. and 5% CO2. 5 μg pAKKO-hOT7T175 plasmid DNA was transfected to the resultant cells by a known method (described in Example 3 of WO 00/24890) using the Cellphect Transfection Kit (Amersham, #27-9268-01). The DNA-transfected cells were cultured in the Dulbecco's modified Eagle medium (DMEM) (Sigma, #D6046) containing 10% dialyzed FBS (Biowest, #S180D), 1× Non-Essential Amino Acid (Invitrogen, #11140-050) and 50 μg/ml Gentamycin (Invitrogen, #15750-060; and cell strains stably expressing the plasmid genes were selected. The obtained 41 clones were treated with the FLIPR assay (in accordance with the method described in Example 3 of WO 00/24890), and the reactivity to the human metastin […] (Nos. 40 to 54 of the human metastin sequence; Peptide Institute, Inc., #4389-v) was evaluated. In the end, h175 KB34 cell strains were selected. By substantially the same method, h175-16 cell strains were also produced.
The h175 KB34 cells were cultured to be on the stage of 40-50% confluency using a cell factory (Nunc, #164327), and then cells were recovered in the following method.
First, the medium was disposed, and the cells were washed twice with 200 ml EDTA/PBS(−). Another 200 ml of EDTA/PBS(−) was added, and the cells were kept still for 20 minutes at room temperature until being peeled off. The cells were recovered into four 50 ml tubes (Becton Dickinson, #352070), and centrifuged (2,000 rpm, 10 min., 4° C.) by a reduced performance centrifuge (TOMY, RL-101). The supernatant was disposed, and the pellets in the four tubes were each suspended with 10 ml EDTA/PBS(−) and collected into one tube (Becton Dickinson, #352070). The pellet was further centrifuged (2,000 rpm, 10 min., 4° C.). The resultant pellet was suspended with 20 ml ice-cooled homogenizer buffer [10 mM NaHCO3, 2 mM EGTA, 0.2 mM magnesium acetate, 10 μg/ml Leupeptin (Peptide Institute, Inc., #4041), 10 μg/ml E-64 (Peptide Institute, Inc., # 4096), 100 μg/ml o-phenanthroline (Dojindo Laboratories), 90 μg/ml PMSF (Wako Pure Chemical Industries, Ltd.), 10 μg/ml Pepstatin A (Peptide Institute, Inc., #4397), pH7.3]. The cell suspension was homogenized 3 times, each for 30 seconds, using a Polytron homogenizer. The resultant homogenate was centrifuged (2,500 rpm, 10 min, 4° C.) using a high performance refrigerated centrifuge (Hitachi, Ltd., CR26H). The supernatant was recovered into a super-centrifuge tube, and super-centrifuged (30,000 rpm, 60 min, 4° C.) using a super-centrifuge (Hitachi, Ltd., SCP70H). 3 ml homogenizer buffer was added to the resultant pellet, and the pellet was suspended by pipetting. 3 ml glycerol (Wako Pure Chemical Industries, Ltd.) was added to the resultant suspension and diluted 2-folds. The resultant substance was used as a cell membrane fraction of the h175 KB34 cells. Each […] of the membrane fraction was put into a 1.5 ml tube (Eppendorf, #0030120.086), stored in a freezer (−30 C) so as not to be frozen, and used for a binding assay.
An assay buffer was prepared on the day of the test by adding, to each 100 ml of an assay basic buffer [20 mM Tris, 2.5 mM Magnesium Acetate, 2 mM EGTA, pH 7.4], 1 mg Leupeptin (Peptide Institute, Inc., 4041), 1 mg E-64 (Peptide Institute, Inc., 4096), 10 mg o-phenanthroline (Dojindo Laboratories), 9 mg PMSF (Wako Pure Chemical Industries, Ltd.) and 1 mg Pepstatin A (Peptide Institute, Inc., 4397). The prepared assay buffer was stored at 4° C. until being used. When the measurement was to be performed with no BSA, the above-described assay buffer was used. […]

T1 sequence (Q969F8 whole entry L364H): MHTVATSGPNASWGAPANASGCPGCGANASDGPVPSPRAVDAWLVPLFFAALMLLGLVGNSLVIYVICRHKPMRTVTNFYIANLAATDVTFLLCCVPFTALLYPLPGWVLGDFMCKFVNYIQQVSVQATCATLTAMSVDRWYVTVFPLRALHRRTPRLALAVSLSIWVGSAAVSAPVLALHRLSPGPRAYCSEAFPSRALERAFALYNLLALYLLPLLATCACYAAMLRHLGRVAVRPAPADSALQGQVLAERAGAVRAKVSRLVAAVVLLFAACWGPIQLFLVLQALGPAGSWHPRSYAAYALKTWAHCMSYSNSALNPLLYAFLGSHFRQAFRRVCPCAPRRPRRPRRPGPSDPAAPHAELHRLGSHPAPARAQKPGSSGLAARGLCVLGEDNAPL

Structure (SMILES) | IC50
CCN1CCN(Cc2cccc(-c3cc(-c4ccc(F)cc4O)nc(NC(=O)c4ccco4)c3C#N)c2)CC1 [Example 334, N-[3-cyano-4-{3-[(4-ethylpiperazin-1-yl)methyl]phenyl}-6-(4-fluoro-2-hydroxyphenyl)pyridin-2-yl]-2-furamide dihydrochloride] | ≤ 10 µM
CNCCC(=O)Nc1cccc(-c2cc(-c3ccc(F)cc3O)nc(NC(=O)c3ccco3)c2C#N)c1 [Example 313, N-(3-cyano-6-(4-fluoro-2-hydroxyphenyl)-4-{3-[(N-methyl-β-alanyl)amino]phenyl}pyridin-2-yl)-2-furamide hydrochloride] | ≤ 10 µM
N#Cc1c(-c2cccc(CN3CCCNCC3)c2)cc(-c2ccc(F)cc2O)nc1NC(=O)c1ccco1 [Example 335, N-[3-cyano-4-[3-(1,4-diazepan-1-ylmethyl)phenyl]-6-(4-fluoro-2-hydroxyphenyl)pyridin-2-yl]-2-furamide dihydrochloride] | ≤ 10 µM
N#Cc1c(N2CCCC(C(=O)NCCN)C2)cc(-c2ccccc2O)nc1NC(=O)c1ccco1 (stereo not shown) [Example 288, N-(2-aminoethyl)-1-[3-cyano-2-(2-furoylamino)-6-(2-hydroxyphenyl)pyridin-4-yl]piperidine-3-carboxamide hydrochloride] | ≤ 10 µM
N#Cc1c(-c2cccc(CN3CCNCC3)c2)cc(-c2ccc(F)cc2O)nc1NC(=O)c1ccco1 [Example 325, N-{3-cyano-6-(4-fluoro-2-hydroxyphenyl)-4-[3-(piperazine-1-ylmethyl)phenyl]pyridin-2-yl}-2-furamide ditrifluoroacetic acid] | ≤ 10 µM
COc1c(NC(=O)CCN)cccc1-c1cc(-c2ccccc2O)nc(NC(=O)c2ccco2)c1C#N [Example 276, N-[4-[3-(β-alanylamino)-2-methoxyphenyl]-3-cyano-6-(2-hydroxyphenyl)pyridin-2-yl]-2-furamide hydrochloride] | ≤ 10 µM
C[C@H](N)CNC(=O)c1cccc(-c2cc(-c3ccc(Cl)cc3O)nc(NC(=O)c3ccno3)c2C#N)c1 [Example 268, N-[4-[3-({[(2S)-2-aminopropyl]amino}carbonyl)phenyl]-6-(4-chloro-2-hydroxyphenyl)-3-cyanopyridin-2-yl]isoxazole-5-carboxamide hydrochloride] | ≤ 10 µM
CN(C)CC(=O)Nc1cccc(-c2cc(-c3ccc(F)cc3O)nc(NC(=O)c3ccco3)c2CN(C)C)c1 [Example 300, N-[3-[(dimethylamino)methyl]-4-{3-[(N,N-dimethylglycyl)amino]phenyl}-6-(4-fluoro-2-hydroxyphenyl)pyridin-2-yl]-2-furamide dihydrochloride] | ≤ 10 µM
CNCC(=O)Nc1cccc(-c2cc(-c3ccc(F)cc3O)nc(NC(=O)c3ccco3)c2C#N)c1 [Example 312, N-(3-cyano-6-(4-fluoro-2-hydroxyphenyl)-4-{3-[(N-methylglycyl)amino]phenyl}pyridin-2-yl)-2-furamide hydrochloride] | ≤ 10 µM
CC(N)CC(=O)Nc1cccc(-c2cc(-c3ccc(Cl)cc3O)nc(NC(=O)c3cccn3C)c2C#N)c1 (stereo not shown) [Example 274, N-[4-{3-[(3-aminobutanoyl)amino]phenyl}-6-(4-chloro-2-hydroxyphenyl)-3-cyanopyridin-2-yl]-1-methyl-1H-pyrrole-2-carboxamide hydrochloride] | ≤ 10 µM
N#Cc1c(-c2cccc(NC(=O)[C@H](N)Cc3cnc[nH]3)c2)cc(-c2ccc(Cl)cc2O)nc1NC(=O)c1ccco1 [Example 253, N-{3-[6-(4-chloro-2-hydroxyphenyl)-3-cyano-2-(2-furoylamino)pyridin-4-yl]phenyl}-D-histidinamide dihydrochloride] | ≤ 10 µM
N#Cc1c(-c2cccc(NC(=O)CCN)c2)cc(-c2ccc(F)cc2O)nc1NC(=O)c1cccs1 [Example 58, N-{4-[3-(β-alanylamino)phenyl]-3-cyano-6-(4-fluoro-2-hydroxyphenyl)pyridin-2-yl}thiophene-2-carboxamide hydrochloride] | ≤ 10 µM
CN1CCN(Cc2cccc(-c3cc(-c4ccc(F)cc4O)nc(NC(=O)c4ccco4)c3C#N)c2)CC1 [Example 333, N-(3-cyano-6-(4-fluoro-2-hydroxyphenyl)-4-{3-[(4-methylpiperazin-1-yl)methyl]phenyl}pyridin-2-yl)-2-furamide dihydrochloride] | ≤ 10 µM
Cl.N#Cc1c(-c2cccc(NC(=O)CC3CCCCN3)c2)cc(-c2ccc(F)cc2O)nc1NC(=O)c1ccco1 (stereo not shown) [Example 290, hydrochloride] | ≤ 10 µM
N#Cc1c(-c2cccc(NC(=O)[C@@H](N)CN)c2)cc(-c2ccc(F)cc2O)nc1NC(=O)c1ccco1 [Example 302, N-[4-{3-[(3-amino-L-alanyl)amino]phenyl}-3-cyano-6-(4-fluoro-2-hydroxyphenyl)pyridin-2-yl]-2-furamide dihydrochloride] | ≤ 10 µM
COc1c(NC(=O)OC(C)(C)C)cccc1-c1cc(-c2ccccc2O)nc(NC(=O)c2ccco2)c1C#N [Example 275, tert-butyl{3-[3-cyano-2-(2-furoylamino)-6-(2-hydroxyphenyl)pyridin-4-yl]-2-methoxyphenyl}carbamate] | ≤ 10 µM
N#Cc1c(-c2cccc(NC(=O)CCN)c2)cc(-c2ccc(Cl)cc2O)nc1NC(=O)c1ccoc1 [Example 254, N-[4-[3-(β-alanylamino)phenyl]-6-(4-chloro-2-hydroxyphenyl)-3-cyanopyridin-2-yl]-3-furamide hydrochloride] | ≤ 10 µM
N#Cc1c(-c2cccc(NC(=O)[C@H](N)Cc3c[nH]cn3)c2)cc(-c2ccc(F)cc2O)nc1NC(=O)c1ccco1 [Example 261, N-{3-[3-cyano-6-(4-fluoro-2-hydroxyphenyl)-2-(2-furoylamino)pyridin-4-yl]phenyl}-D-histidinamide hydrochloride] | ≤ 10 µM
N#Cc1c(-c2cccc(C(=O)NCCN)c2)cc(-c2ccc(F)cc2O)nc1NC(=O)c1ccco1 [Example 66, N-[4-(3-{[(2-aminoethyl)amino]carbonyl}phenyl)-3-cyano-6-(4-fluoro-2-hydroxyphenyl)pyridin-2-yl]-2-furamide hydrochloride] | ≤ 10 µM
N#Cc1c(-c2cccc(NC(=O)[C@@H](N)Cc3cnc[nH]3)c2)cc(-c2ccc(Cl)cc2O)nc1NC(=O)c1ccco1 [Example 243, N-{3-[6-(4-chloro-2-hydroxyphenyl)-3-cyano-2-(2-furoylamino)pyridin-4-yl]phenyl}-L-histidinamide dihydrochloride] | ≤ 10 µM
CN(C(=O)CN)c1cccc(-c2cc(-c3ccccc3O)nc(NC(=O)c3cccs3)c2C#N)c1 [Example 41, N-[3-cyano-4-{3-[glycyl(methyl)amino]phenyl}-6-(2-hydroxyphenyl)pyridin-2-yl]thiophene-2-carboxamide dihydrochloride] | ≤ 10 µM
CCN1CCN(c2cccc(-c3cc(-c4ccc(F)cc4O)nc(NC(=O)c4ccco4)c3C#N)c2)CC1 [Example 330, N-[3-cyano-4-[3-(4-ethylpiperazin-1-yl)phenyl]-6-(4-fluoro-2-hydroxyphenyl)pyridin-2-yl]-2-furamide hydrochloride] | ≤ 10 µM
